Where two headings read alike, the source gives them in different places.
Tests used:
[1] = tested on: Salmonella Typhimurium TA1535; assay type: cell-based; settings: positive control
Procedure: (§1) Salmonella Typhimurium TA97a, TA98, TA100, TA102, and TA1535 from MOLT OX, USA, were purchased from Shanghai Bioplus Biotech. Co., Ltd. The test was carried out using Salmonella typhimurium strains that were identified as meeting the requirements.
(§2) Rat liver S9 from Shanghai Bioplus Biotech. Co., Ltd.
(§3) The experiments were performed using the plate incorporation method.
(§4) Dose selection: The experiments were performed using 5 mg, 2.5 mg, 1.25 mg, 0.625 mg, 0.3125 mg, and 0.15625 mg per dish.
(§5) Test substance preparation: nitrosamine impurity compound P08 was prepared to a solution of 50 mg/ml with dimethyl-sulfoxide, and diluted with dimethyl-sulfoxide to give the solutions of 25 mg/ml, 12.5 mg/ml, 6.25 mg/ml, 3.125 mg/ml, and 1.5625 mg/ml successively.
(§6) 0.1 ml of frozen bacterial solutions TA97a, TA98, TA100, TA102 and TA1535 were inoculated into the 10 ml nutrient broth mediums respectively, and cultured at 37° C. (100/min) for 10 h with shaking (100 times/min). 2.0 ml of top layer medium containing 0.5 mmol/L histidine −0.5 mmol/L biotin was dispensed into test tubes, sterilized by 0.103 MPa for 20 min, and kept in a water bath at 50° C. Then, 0.1 ml of the test substance solution, 0.5 ml of the S9 mixture (when metabolic activation was required) and 0.1 ml of the bacterial solution were added into each tube successively, mixed sufficiently, and poured into the bottom layer agar plates quickly. Then, the plates were turned to distribute even. After being placed horizontally for condensation and solidification, the plates were inverted and incubated in an incubator at 37° C. for 48 h, and the number of reverse mutation colonies per dish was counted. Three parallel plates of each dose were made, containing the spontaneous reverse mutation group, the solvent control group and the positive control group.
(§7) The data were expressed as means±standards deviation (x±s), and SPSS 19.0 was used for calculation of data analysis.
(§8) If the test substance tested by the above test strain is negative both with and without S9, then the test substance is determined to be mutagenic negative.

[2] = tested on: Salmonella Typhimurium TA97a; test: Ames test, plate incorporation method, TA97a; assay type: cell-based; settings: positive control, −S9, 50 μg/dish
Procedure: (§9) Salmonella Typhimurium TA97a, TA98, TA100, TA102, and TA1535 from MOLT OX, USA, were purchased from Shanghai Bioplus Biotech.
as §2, §3, §4, §6, §7, §8

[3] = tested on: Salmonella Typhimurium TA98; test: Ames test, plate incorporation method, TA98; assay type: cell-based; settings: positive control, TA98, −S9, 50 μg/dish
Procedure: as §9, §2, §3, §4, §6, §7, §8

[4] = tested on: Salmonella Typhimurium TA100; test: Ames test, plate incorporation method, TA100; assay type: cell-based; settings: positive control, TA100, −S9, 1 μl/dish
Procedure: as §9, §2, §3, §4, §6, §7, §8

[5] = tested on: Salmonella Typhimurium TA102; test: Ames test, plate incorporation method, TA102; assay type: cell-based; settings: positive control
Procedure: as §1, §2, §3, §4, §5, §6, §7, §8

[6] = Content of nitrosamine impurity P08 in varenicline tartrate tablets, initial and at high temperature (HPLC Q-Exactive-MS/MS); assay type: physicochemical
Procedure: After ultrasound for 5 min, the pH of the dispersion was measured. The content of the nitrosamine impurity P08 in the varenicline tartrate tablets were measured by HPLC Q-Exactive-MS/MS (Vanquish HPLC Q-Exactive-MS/MS).
Wherein, • “API” (Active Pharmaceutical Ingredient) refers to the API of varenicline tartrate. • “Initial” refers to the immediate measurement after the preparation of the varenicline tartrate tablet. • “Measurement at high-temperature” refers to the measurement after keeping at 60° C. of the prepared varenicline tartrate tablet for a period of time (see “Chinese Pharmacopoeia”). • Symbol * refers to the liquid sample after adjusting the pH value, and the liquid sample is tested. • Symbol # refers to the liquid sample after adjusting the pH value which is subjected to a high temperature test, and then the liquid sample is tested.
Methodologically validated HPLC Q-Exactive-MS/MS (Vanquish HPLC Q-Exactive-MS/MS) was used for the qualitative and/or quantitative determination of nitrosamine impurity P08 in varenicline tartrate tablets. The measurement results are shown in Example 4.
Sample solution: 10 varenicline tartrate tablets were placed in a 10 ml volumetric flask, added with 3 mL of purified water and 3 mL of acetonitrile, sonicated for 30s, then diluted with acetonitrile to volume and mixed evenly.
C (ppm)=the concentration (ng/ml) of P08 in the sample solution/the concentration (mg/ml) of varenicline tartrate in the sample solution.

O=P1(N(CCCl)CCCl)NCCCO1 (stereo not shown) [Cyclophosphamide, cyclophosphamide, reference compound]
number of reverse mutation colonies per dish (x ± s) ([1]; TA1535, +S9, 200 μg/dish): 171 ± 11

[N-]=[N+]=[N-] [Sodium azide, sodium azide, reference compound]
number of reverse mutation colonies per dish (x ± s) ([1]; TA1535, −S9, 1.5 μg/dish): 570 ± 46

CN(C)c1ccc(N=NS(=O)(=O)[O-])cc1.[Na+] [Dexon, reference compound]
number of reverse mutation colonies per dish (x ± s) [2]: 1294 ± 64
number of reverse mutation colonies per dish (x ± s) [3]: 691 ± 43

COS(C)(=O)=O [Methyl methanesulfonate, methyl methanesulfonate, reference compound]
number of reverse mutation colonies per dish (x ± s) [4]: 1596 ± 71
number of reverse mutation colonies per dish (x ± s) ([5]; TA102, −S9, 1 μl/dish): 2418 ± 257

O=C1c2cccc(O)c2C(=O)c2c(O)cccc21 [1,8-dihydroxyanthraquinone, reference compound]
number of reverse mutation colonies per dish (x ± s) ([5]; TA102, +S9, 50 μg/dish): 921 ± 32

varenicline tartrate [API]
P08 in API ([6]; API of varenicline tartrate used for blue coating tablets): 0.511 ppm
P08 in API ([6]; API of varenicline tartrate used for core tablets): 0.511 ppm
P08 in API ([6]; API of varenicline tartrate used for white coating tablets): 0.511 ppm

From patent US20240374609A1, “NITROSAMINE IMPURITY, VARENICLINE PHARMACEUTICAL COMPOSITION CAPABLE OF REDUCING GENERATION OF NITROSAMINE IMPURITIES AND PREPARATION AND USE THEREOF” (VIWIT PHARMACEUTICALCO., LTD., priority 2021, published 2024)
